In this experiment the test system is BDF1 mice, B16 melanoma ip, median survival T/C. In words: NCI In Vivo Anticancer Drug Screen. Data for tumor model B16 Melanoma (intraperitoneal) in B6D2F1 (BDF1) mice. As to conditions: endpoint: median survival time, higher = longer survival. Put shortly:
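Survival or tumor size is measured after treatment of tumor-bearing mice and normalised to the vehicle-treated control group.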

Setting [1] is: dose: 200.0 mg/kg/injection, schedule: Q01DX009 (ip), vehicle: saline with Tween-80.
[2] abbreviates: dose: 6.25 mg/kg/injection, schedule: Q01DX009 (ip), vehicle: saline.
Where [3] appears, read: dose: 12.5 mg/kg/injection, schedule: Q01DX009 (ip), vehicle: saline.
The mark [4] stands for this setting: dose: 25.0 mg/kg/injection, schedule: Q01DX009 (ip), vehicle: saline.
[5] abbreviates: dose: 50.0 mg/kg/injection, schedule: Q01DX009 (ip), vehicle: saline.
Where [6] appears, read: dose: 100.0 mg/kg/injection, schedule: Q01DX009 (ip), vehicle: saline.
Where [7] appears, read: dose: 0.78 mg/kg/injection, schedule: Q01DX009 (ip), vehicle: saline.
The mark [8] stands for this setting: dose: 1.0 mg/kg/injection, schedule: Q01DX009 (ip), vehicle: saline.
[9] abbreviates: dose: 1.56 mg/kg/injection, schedule: Q01DX009 (ip), vehicle: saline.
[10] abbreviates: dose: 2.0 mg/kg/injection, schedule: Q01DX009 (ip), vehicle: saline.
[11] abbreviates: dose: 3.12 mg/kg/injection, schedule: Q01DX009 (ip), vehicle: saline.

The structures appear in SMILES notation. Values joined by “and” are separate entries in the source; they are usually repeats but may differ in a detail not shown here. Identical values can stand only once. Inconclusive results and toxic doses are left out.

This note sets out measurements from PubChem BioAssay AID192 (DTP/NCI, 2004).

Turning to `COC12[C@@H]3N[C@@H]3CN1C1=C(C(=O)C(NCCSSCCNC3=C(C)C(=O)C4=C(C3=O)C(COC(N)=O)[C@]3(OC)C5N[C@@H]5CN43)=C(C)C1=O)[C@@H]2COC(N)=O` (some centres not stated), the T/C is, setting by setting: (dose: 0.2 mg/kg/injection, schedule: Q04DX003 (ip), vehicle: other) 168 % of control; (dose: 0.4 mg/kg/injection, schedule: Q04DX003 (ip), vehicle: other) 241 % of control; (dose: 0.8 mg/kg/injection, schedule: Q04DX003 (ip), vehicle: other) 295 % of control; (dose: 1.5 mg/kg/injection, schedule: Q04DX003 (ip), vehicle: saline with Tween-80) 184 % of control; (dose: 1.6 mg/kg/injection, schedule: Q04DX003 (ip), vehicle: other) 295 % of control; (dose: 3.0 mg/kg/injection, schedule: Q04DX003 (ip), vehicle: saline with Tween-80) 197 % of control. The T/C was 295 % of control (dose: 3.2 mg/kg/injection, schedule: Q04DX003 (ip), vehicle: other); 288 % of control (dose: 6.0 mg/kg/injection, schedule: Q04DX003 (ip), vehicle: saline with Tween-80); 295 % of control (dose: 6.4 mg/kg/injection, schedule: Q04DX003 (ip), vehicle: other); 288 % of control (dose: 12.0 mg/kg/injection, schedule: Q04DX003 (ip), vehicle: saline with Tween-80).
For the molecule `Nc1nc(Br)c2ccccc2c1-c1ccc([N+](=O)[O-])cc1`, under setting [1], the T/C is 91 % of control.
Turning to `O=C(NCCCN1CCN(CCCNC(=O)c2cccnc2)CC1)c1cccnc1`, the T/C was 107 % of control under setting [2]; 107 % of control under setting [3]; 112 % of control under setting [4]; 104 % of control under setting [5]; 95 % of control under setting [6].
For the molecule `CCCCCCCCC(=O)NCCCOC`, the T/C was 107 % of control (dose: 100.0 mg/kg/injection, schedule: Q04DX003 (ip), vehicle: Klucel (hydroxypropylcellulose) (HPC)); 101 % of control (dose: 200.0 mg/kg/injection, schedule: Q04DX003 (ip), vehicle: Klucel (hydroxypropylcellulose) (HPC)); 93 % of control (dose: 400.0 mg/kg/injection, schedule: Q04DX003 (ip), vehicle: Klucel (hydroxypropylcellulose) (HPC)).
With `CCCCCC(O)C1C(=O)OC(C)C(O)/C=C/C=C/C=C/C=C/C=C(\C)C(O)C(O)C(O)CC(O)CC(O)CC(O)CC(O)CC1O` (configuration not stated), the T/C is, setting by setting: under setting [7], 124 % of control; under setting [8], 116 % of control; under setting [9], 119 % of control; (dose: 1.78 mg/kg/injection, schedule: Q01DX009 (ip), vehicle: saline) 122 % of control; under setting [10], 123 % of control; under setting [11], 103 % of control. The T/C (dose: 4.0 mg/kg/injection, schedule: Q01DX009 (ip), vehicle: saline) was 154 % of control.
As to `Oc1ccc(O)cc1`, the T/C under setting [7] is 92 % of control; the T/C under setting [9] was 89 % of control; the T/C under setting [11] was 89 % of control; the T/C under setting [4] is 89 % of control and 117 % of control; the T/C under setting [5] is 96 % of control and 118 % of control.
Consider `Cc1ccccc1NC(=O)c1cc2ccccc2cc1O`, for which the T/C by setting is: (dose: 100.0 mg/kg/injection, schedule: Q01DX009 (ip), vehicle: saline with Tween-80) 110 % of control; under setting [1], 110 % of control; (dose: 400.0 mg/kg/injection, schedule: Q01DX009 (ip), vehicle: saline with Tween-80) 107 % of control.
Take `COc1cc2cc3c4cc(OC)c(OC)cc4cc[n+]3c(C)c2cc1OC` (tested in a mixture with another compound): the T/C under setting [2] was 106 % of control; the T/C (dose: 6.25 mg/kg/injection, schedule: Q04DX003 (ip), vehicle: saline with Tween-80) is 88 % of control; the T/C (dose: 6.25 mg/kg/injection, schedule: Q04DX003 (ip), vehicle: saline) is 107 % of control; the T/C (dose: 8.0 mg/kg/injection, schedule: Q01DX009 (ip), vehicle: Klucel (hydroxypropylcellulose) (HPC)) was 90 % of control and 91 % of control; the T/C (dose: 8.0 mg/kg/injection, schedule: Q01DX009 (ip), vehicle: clinical formulation) was 100 % of control and 109 % of control; the T/C (dose: 8.0 mg/kg/injection, schedule: Q01DX009 (ip), vehicle: other) was 99 % of control and 107 % of control. For the same molecule, the T/C is 87 % of control (dose: 8.0 mg/kg/injection, schedule: Q01DX009 (ip), vehicle: water); 93 % of control under setting [3]; 95 % of control (dose: 12.5 mg/kg/injection, schedule: Q01DX009 (ip), vehicle: water); 100 % of control (dose: 12.5 mg/kg/injection, schedule: Q04DX003 (ip), vehicle: saline with Tween-80); 105 % of control (dose: 12.5 mg/kg/injection, schedule: Q04DX003 (ip), vehicle: saline); 91 % of control and 92 % of control and 96 % of control (dose: 16.0 mg/kg/injection, schedule: Q01DX009 (ip), vehicle: Klucel (hydroxypropylcellulose) (HPC)). Besides, the T/C was 94 % of control and 106 % of control (dose: 16.0 mg/kg/injection, schedule: Q01DX009 (ip), vehicle: clinical formulation); 97 % of control and 111 % of control and 123 % of control (dose: 16.0 mg/kg/injection, schedule: Q01DX009 (ip), vehicle: other); 96 % of control and 106 % of control (dose: 16.0 mg/kg/injection, schedule: Q01DX009 (ip), vehicle: water); 87 % of control under setting [4]; 109 % of control (dose: 25.0 mg/kg/injection, schedule: Q01DX009 (ip), vehicle: water); 102 % of control (dose: 25.0 mg/kg/injection, schedule: Q04DX003 (ip), vehicle: saline with Tween-80). The T/C was 102 % of control (dose: 25.0 mg/kg/injection, schedule: Q04DX003 (ip), vehicle: saline); 90 % of control and 93 % of control and 95 % of control (dose: 32.0 mg/kg/injection, schedule: Q01DX009 (ip), vehicle: Klucel (hydroxypropylcellulose) (HPC)); 96 % of control and 105 % of control (dose: 32.0 mg/kg/injection, schedule: Q01DX009 (ip), vehicle: clinical formulation); 103 % of control and 105 % of control (2×) (dose: 32.0 mg/kg/injection, schedule: Q01DX009 (ip), vehicle: other); 94 % of control and 111 % of control (dose: 32.0 mg/kg/injection, schedule: Q01DX009 (ip), vehicle: water); 105 % of control (dose: 33.0 mg/kg/injection, schedule: Q01DX009 (ip), vehicle: saline with Tween-80). Further, the T/C is, setting by setting: (dose: 50.0 mg/kg/injection, schedule: Q01DX009 (ip), vehicle: saline with Tween-80) 110 % of control; (dose: 50.0 mg/kg/injection, schedule: Q01DX009 (ip), vehicle: water) 93 % of control; (dose: 50.0 mg/kg/injection, schedule: Q04DX003 (ip), vehicle: saline with Tween-80) 97 % of control; (dose: 50.0 mg/kg/injection, schedule: Q04DX003 (ip), vehicle: saline) 100 % of control; (dose: 64.0 mg/kg/injection, schedule: Q01DX009 (ip), vehicle: Klucel (hydroxypropylcellulose) (HPC)) 89 % of control and 91 % of control and 94 % of control; (dose: 64.0 mg/kg/injection, schedule: Q01DX009 (ip), vehicle: clinical formulation) 104 % of control. Moreover, the T/C (dose: 64.0 mg/kg/injection, schedule: Q01DX009 (ip), vehicle: other) was 100 % of control and 104 % of control; the T/C (dose: 75.0 mg/kg/injection, schedule: Q01DX009 (ip), vehicle: saline with Tween-80) was 101 % of control; the T/C under setting [6] is 106 % of control; the T/C (dose: 100.0 mg/kg/injection, schedule: Q01DX009 (ip), vehicle: water) is 91 % of control; the T/C (dose: 100.0 mg/kg/injection, schedule: Q04DX003 (ip), vehicle: saline) was 94 % of control; the T/C (dose: 128.0 mg/kg/injection, schedule: Q01DX009 (ip), vehicle: Klucel (hydroxypropylcellulose) (HPC)) was 91 % of control and 93 % of control. Besides, the T/C is, setting by setting: (dose: 200.0 mg/kg/injection, schedule: Q04DX003 (ip), vehicle: saline with Tween-80) 88 % of control; (dose: 200.0 mg/kg/injection, schedule: Q04DX003 (ip), vehicle: saline) 100 % of control.
With `Cc1ccc(Cl)cc1NC(=O)c1ccccc1Cl`, the T/C (dose: 100.0 mg/kg/injection, schedule: Q01DX009 (ip), vehicle: Klucel (hydroxypropylcellulose) (HPC)) is 108 % of control and the T/C (dose: 200.0 mg/kg/injection, schedule: Q01DX009 (ip), vehicle: Klucel (hydroxypropylcellulose) (HPC)) was 98 % of control.
Regarding `CC[CH2][Sn]([Cl])([Cl])[CH2]CC`, the T/C (dose: 0.5 mg/kg/injection, schedule: Q01DX009 (ip), vehicle: saline) is 93 % of control and 100 % of control; the T/C under setting [8] is 89 % of control and 100 % of control; the T/C under setting [10] was 93 % of control.
